Earlier results, collected in US20250249020A1, “COLLOIDALLY STABLE HEME-ALBUMIN COMPLEXES AND METHODS OF MAKING AND USING THEREOF” (Ohio State Innovation Foundation, priority 2022, published 2025).

Target: Hpx
Conditions: heme binding, background

Kd: ~10 nM
SMILES: C=CC1=C(C)c2cc3[n-]c(cc4[n-]c(cc5nc(cc1n2)C(C)=C5C=C)c(C)c4CCC(=O)O)c(CCC(=O)O)c3C.[Fe+2] [heme]
